Measured values reported in patent US20250388605A1, “HETEROBIFUNCTIONAL COMPOUNDS AND METHODS OF TREATING DISEASE” (Halda Therapeutics OpCo, Inc., priority 2022, published 2025).

Tests used:
VCaP cells = assay: Cellular growth inhibition assay for VCaP cells, CellTiter-Glo; format: cell-based, human; details: Homo sapiens, 72 hours
Procedure, shortened: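 GI50 values come from four-parameter curve fits of luminescence data normalized to a zero baseline. Compound, in medium with 0.5% DMSO, was added one day after plating and left for 72 h before CellTiter-Glo 2.0 addition.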

T47D cells = assay: Cellular Growth Inhibition Assay for T47D Cells (CellTiter-Glo); format: cell-based, human; details: Homo sapiens, 72 hours
Experimental: Exemplary compounds were tested for ability to inhibit the proliferation of T47D cells. T47D cells are a commercially available human breast cancer cell line.
T47D cells were purchased from American Type Cell Culture (ATCC Cat #HTB-133) and then seeded on poly-D-lysine coated, black clear-bottom 384-well plates at 3000/well in 25 μL Dulbecco's Modified Eagle Medium (DMEM) supplemented with 10% w/w Fetal bovine serum (FBS), 0.2 units/mL recombinant human insulin (Gibco Cat #12585014), and 1% w/w Pen-Strep. Pen-Strep is a commercially available mixture of penicillin G and streptomycin, which is used in mammalian cell culture media to prevent bacterial contamination. Dulbecco's Modified Eagle Medium (DMEM) supplemented with 10% w/w fetal bovine serum (FBS), 0.2 units/mL recombinant human insulin, and 1% w/w Pen-Strep is herein referred to as Treatment Medium. Following seeding of cells in the plates, the plates were spun at 300×g for 30 seconds, then equilibrated to room temperature for 30 minutes, and then deposited in a humidified tissue culture incubator maintained at 37° C. with 5% CO2.
At 24 hours after seeding of the cells, dilutions of test compound were prepared in DMSO and dissolved in Treatment Medium, to achieve a final DMSO concentration of 0.5% w/w, thereby providing the Test Compound Solution. A 25 μL aliquot of the Test Compound Solution was added to cells in the well plates. An equal volume of a solution containing DMSO and Treatment Medium was used as a negative control. Following treatment of cells with Test Compound Solution or said equal volume of a solution containing DMSO and Treatment Medium, the plates were spun at 300×g for 30 seconds, and then left in an incubator for 72 hours.
At the end of the treatment duration, cell viability was quantified with CellTiter-Glo 2.0 reagent (Promega Cat #G9243). For this purpose, plates were equilibrated to room temperature for 30 minutes, and then 25 μL of CellTiter-Glo 2.0 reagent was added to cells in the plate wells. Plates were then agitated on a shaker for two minutes at 500 rpm and subsequently incubated at room temperature for 10 minutes. Following incubation, the plates were spun at 3000×g for 30 seconds, then sealed with an optical adhesive cover, and luminescence readings were measured with an EnVision Plate Reader (Perkin Elmer).
Data was normalized using zero luminescence for baseline. A four-parameter non-linear regression curve fit was applied to dose-response data in GraphPad Prism data analysis software to determine the half-maximal growth inhibitory concentration (GI50) for each test compound.

[1] = tested on: T-Rex 293 cell line SC3 cells lacking increased expression of androgen receptor protein; assay: Cellular growth inhibition, T-Rex 293 SC3 cells without doxycycline (no increased androgen receptor expression), CellTiter-Glo; format: cell-based; details: T-Rex 293 SC3 cells not exposed to doxycycline (no increased androgen receptor expression), 72 hours
Procedure, shortened: (§1)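 Doxycycline (10 ng/mL) was either included or omitted to toggle wild-type androgen receptor expression in SC3 cells, a T-Rex 293 clone, grown in stripped-serum, phenol red-free medium. After 72 hours with compound, viable cells were quantified by CellTiter-Glo 2.0.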

[2] = tested on: T-Rex 293 cell line SC3 cells having increased expression of androgen receptor protein due to exposure to doxycycline; assay: Cellular growth inhibition, T-Rex 293 SC3 cells with doxycycline (increased androgen receptor expression), CellTiter-Glo; format: cell-based; details: T-Rex 293 SC3 cells with 10 ng/mL doxycycline (increased androgen receptor expression), 72 hours, CellTiter-Glo 2.0
Procedure, shortened: as §1

Row | Compound | GI50 (VCaP cells) [nM] | GI50 (T47D cells) [nM] | GI50 [1] [nM] | GI50 [2] [nM]
1 | CCS(=O)(=O)Nc1ccc(Oc2cccc(N(C)C3CN(c4ncc(C(=O)N[C@H]5C(C)(C)[C@H](Oc6ccc(C#N)c(Cl)c6)C5(C)C)cn4)C3)c2)c(-c2cn(C)c(=O)c3[nH]ccc23)c1 [Compound I-31] | < 500 | < 500 | < 500 | 500 to 1500
2 | CCS(=O)(=O)Nc1ccc(Oc2cccc(N3CCC(CC4CCN(c5ncc(C(=O)N[C@H]6C(C)(C)[C@H](Oc7ccc(C#N)c(Cl)c7)C6(C)C)cn5)CC4)C3)c2)c(-c2cn(C)c(=O)c3[nH]ccc23)c1 (stereo partly shown) [Compound I-40] | < 500 | < 500 | > 3000 | < 500
3 | CCS(=O)(=O)Nc1ccc(Oc2cccc(N3CCC(N(C)C4CCN(c5ncc(C(=O)N[C@H]6C(C)(C)[C@H](Oc7ccc(C#N)c(Cl)c7)C6(C)C)cn5)CC4)C3)c2)c(-c2cn(C)c(=O)c3[nH]ccc23)c1 (stereo partly shown) [Compound I-41] | < 500 | < 500 | 500 to 1500 | < 500
4 | CCS(=O)(=O)Nc1ccc(Oc2cccc(OC3CCN(C4CCN(c5ncc(C(=O)N[C@H]6C(C)(C)[C@H](Oc7ccc(C#N)c(Cl)c7)C6(C)C)cn5)CC4)C3)c2)c(-c2cn(C)c(=O)c3[nH]ccc23)c1 (stereo partly shown) [Compound I-43] | < 500 | < 500 | 1500 to 3000 | < 500
5 | CC(=O)Nc1ccc(Oc2cccc(OCCOC3CCN(c4ncc(C(=O)N[C@H]5C(C)(C)[C@H](Oc6ccc(C#N)c(Cl)c6)C5(C)C)cn4)CC3)c2)c(-c2cn(C)c(=O)c3[nH]ccc23)c1 [Compound I-57, 2-(4-(2-(3-(4-acetamido-2-(6-methyl-7-oxo-6,7-dihydro-1H-pyrrolo [2,3-c]pyridin-4-yl)phenoxy)phenoxy)ethoxy)piperidin-1-yl)-N-((1r, 3r)-3-(3-chloro-4-cyanophenoxy)-2,2,4,4-tetramethylcyclobutyl)pyrimidine-5-carboxamide] | < 500 | < 500 | 500 to 1500 | < 500
6 | CC(=O)N(C)c1ccc(Oc2cccc(OCCOC3CCN(c4ncc(C(=O)N[C@H]5C(C)(C)[C@H](Oc6ccc(C#N)c(Cl)c6)C5(C)C)cn4)CC3)c2)c(-c2cn(C)c(=O)c3[nH]ccc23)c1 [Compound I-58] | < 500 | 500 to 1500 | > 3000 | < 500
7 | Cn1cc(-c2cc([N+](=O)[O-])ccc2Oc2cccc(OCCOC3CCN(c4ncc(C(=O)N[C@H]5C(C)(C)[C@H](Oc6ccc(C#N)c(Cl)c6)C5(C)C)cn4)CC3)c2)c2cc[nH]c2c1=O [Compound I-63, N-((1r, 3r)-3-(3-chloro-4-cyanophenoxy)-2,2,4,4-tetramethylcyclobutyl)-2-(4-(2-(3-(2-(6-methyl-7-oxo-6,7-dihydro-1H-pyrrolo[2,3-c]pyridin-4-yl)-4-nitrophenoxy)phenoxy)ethoxy)piperidin-1-yl)pyrimidine-5-carboxamide] | < 500 | 500 to 1500 | > 3000 | < 500
8 | CCS(=O)(=O)Nc1ccc(Oc2cccc(C3CN(CC4CCN(c5ncc(C(=O)N[C@H]6C(C)(C)[C@H](Oc7ccc(C#N)c(Cl)c7)C6(C)C)cn5)CC4)C3)c2)c(-c2cn(C)c(=O)c3[nH]ccc23)c1 [Compound I-78] | < 500 | < 500 | < 500 | < 500
9 | CCS(=O)(=O)Nc1ccc(Oc2cccc(N3CC(CC4CCN(c5ncc(C(=O)N[C@H]6C(C)(C)[C@H](Oc7ccc(C#N)c(Cl)c7)C6(C)C)cn5)CC4)C3)c2)c(-c2cn(C)c(=O)c3[nH]ccc23)c1 [Compound I-79] | < 500 | < 500 | 500 to 1500 | < 500
10 | Cn1cc(-c2cc(N)ccc2Oc2cccc(N3CC(N4CCN(c5ncc(C(=O)N[C@H]6C(C)(C)[C@H](Oc7ccc(C#N)c(Cl)c7)C6(C)C)cn5)CC4)C3)c2)c2cc[nH]c2c1=O [Compound I-89, 2-(4-(1-(3-(4-amino-2-(6-methyl-7-oxo-6,7-dihydro-1H-pyrrolo[2,3-c]pyridin-4-yl)phenoxy)phenyl)azetidin-3-yl)piperazin-1-yl)-N-((1r, 3r)-3-(3-chloro-4-cyanophenoxy)-2,2,4,4-tetramethylcyclobutyl)pyrimidine-5-carboxamide] | < 500 | 500 to 1500 | > 3000 | < 500
11 | Cn1cc(-c2ccccc2Oc2cccc(OCCC3CCN(c4ncc(C(=O)N[C@H]5C(C)(C)[C@H](Oc6ccc(C#N)c(Cl)c6)C5(C)C)cn4)CC3)c2)c2cc[nH]c2c1=O [Compound I-102] | < 500 | 1500 to 3000 | 500 to 1500 | < 500

Further lines, with some results ahead:

Row | GI50 (VCaP cells) [nM] | GI50 (T47D cells) [nM] | Compound | GI50 [1] [nM] | GI50 [2] [nM]
12 | < 500 | < 500 | CCS(=O)(=O)Nc1ccc(Oc2cccc(OC3CCN(c4ncc(C(=O)N[C@H]5C(C)(C)[C@H](Oc6ccc(C#N)c(Cl)c6)C5(C)C)cn4)CC3)c2)c(-c2cn(C)c(=O)c3[nH]ccc23)c1 [Compound I-24] | < 500 | < 500
13 | < 500 | < 500 | CCS(=O)(=O)Nc1ccc(Oc2cccc(OCC3CCN(c4ncc(C(=O)N[C@H]5C(C)(C)[C@H](Oc6ccc(C#N)c(Cl)c6)C5(C)C)cn4)CC3)c2)c(-c2cn(C)c(=O)c3[nH]ccc23)c1 [Compound I-25] | < 500 | < 500
14 | < 500 | < 500 | CCS(=O)(=O)Nc1ccc(Oc2cccc(OC3CN(c4ncc(C(=O)N[C@H]5C(C)(C)[C@H](Oc6ccc(C#N)c(Cl)c6)C5(C)C)cn4)C3)c2)c(-c2cn(C)c(=O)c3[nH]ccc23)c1 [Compound I-30] | < 500 | < 500
15 | < 500 | 500 to 1500 | CCS(=O)(=O)Nc1ccc(Oc2cccc(N3CCN(CC4CCN(c5ncc(C(=O)N[C@H]6C(C)(C)[C@H](Oc7ccc(C#N)c(Cl)c7)C6(C)C)cn5)CC4)CC3)c2)c(-c2cn(C)c(=O)c3[nH]ccc23)c1 [Compound I-37] | < 500 | < 500
16 | < 500 | < 500 | CCS(=O)(=O)Nc1ccc(Oc2cccc(N(C)C3CCN(C4CCN(c5ncc(C(=O)N[C@H]6C(C)(C)[C@H](Oc7ccc(C#N)c(Cl)c7)C6(C)C)cn5)CC4)C3)c2)c(-c2cn(C)c(=O)c3[nH]ccc23)c1 (stereo partly shown) [Compound I-42] | < 500 | < 500
17 | < 500 | < 500 | CCS(=O)(=O)Nc1ccc(Oc2cccc(C3CN(C4CCN(c5ncc(C(=O)N[C@H]6C(C)(C)[C@H](Oc7ccc(C#N)c(Cl)c7)C6(C)C)cn5)CC4)C3)c2)c(-c2cn(C)c(=O)c3[nH]ccc23)c1 [Compound I-76] | 1500 to 3000 | < 500
18 | < 500 | < 500 | CCS(=O)(=O)Nc1ccc(Oc2cccc(N3CCC(OC4CCN(c5ncc(C(=O)N[C@H]6C(C)(C)[C@H](Oc7ccc(C#N)c(Cl)c7)C6(C)C)cn5)CC4)C3)c2)c(-c2cn(C)c(=O)c3[nH]ccc23)c1 (stereo partly shown) [Compound I-81] | > 3000 | < 500
19 | < 500 | < 500 | CCS(=O)(=O)Nc1ccc(Oc2cccc(N3CCC(OC4CCN(c5ncc(C(=O)N[C@H]6C(C)(C)[C@H](Oc7ccc(C#N)c(Cl)c7)C6(C)C)cn5)CC4)CC3)c2)c(-c2cn(C)c(=O)c3[nH]ccc23)c1 [Compound I-82] | > 3000 | < 500
